The subject of one test is KB. Briefly: Cytotoxicity against human KB cells. It counts as cell-based.
Another test concerns Leishmania donovani. Put plainly: Antileishmanial activity against Leishmania donovani (MHOM/ET/67/L82) promastigotes. It counts as functional, organism-based.
The subject of the next test is Plasmodium falciparum. Put plainly: Antiprotozoal activity against Plasmodium falciparum K1. It counts as functional, organism-based.
The test system of test [1] is Trypanosoma brucei brucei. Put plainly: Antitrypanosomal activity against Trypanosoma brucei brucei S427 blood stream trypomastigotes. It counts as functional, organism-based.

In the case of `CCN(CC)CCCC(C)Nc1ccnc2cc(Cl)ccc12` (stereo not drawn) [CHLOROQUINE], the IC50 in the test on KB stood at 51.4 µg/mL.

For `C=C1C[C@H](C(=O)OC)[C@]2(C)CC[C@]3(C)[C@H]4[C@H](O)[C@@H](O)[C@]5(COC(C)=O)[C@@H](C)[C@@H](OC(C)=O)CC[C@H]5[C@]4(C)CC[C@@]3(O)[C@]2(O)C1` [GALPHIMIDIN], the IC50 (in the test on KB; in the test on Leishmania donovani; in the test on Plasmodium falciparum; in test [1]) was more than 100 µM throughout.

For the compound `C=C1CC[C@]2(C)CC[C@]3(C)[C@H]4[C@H](OC(C)=O)C[C@]5(COC(C)=O)[C@@H](C)OC(=O)[C@H]6O[C@H]6[C@H]5[C@]4(C)CC[C@@]3(C(=O)OC)[C@]2(O)C1` [GALPHIN A], the IC50 (in the test on KB; with Leishmania donovani; in the test with Plasmodium falciparum; in test [1]) was more than 100 µM throughout.

In the case of `C=C1C[C@@H](OC(C)=O)[C@]2(C)CC[C@]3(C)[C@H]4[C@H](OC(C)=O)C[C@]5(COC(C)=O)[C@@H](C)OC(=O)[C@H]6O[C@H]6[C@H]5[C@]4(C)CC[C@@]3(C(=O)OC)[C@]2(O)C1` [GALPHIN B], the 50% inhibitory concentration (IC50) (in the test with KB; in the test with Leishmania donovani; in the test with Plasmodium falciparum; in test [1]) was more than 100 µM in each case.

On to `C=C1C[C@@H](OC(C)=O)[C@]2(C)CC[C@]3(C)[C@H]4[C@H](OC(C)=O)C[C@]5(COC(C)=O)[C@@H](C)OC(=O)[C@H]6O[C@H]6[C@H]5[C@]4(C)C[C@H](OC(C)=O)[C@@]3(C(=O)OC)[C@]2(O)C1` [GALPHIN C], for which the IC50 (in the test with KB; in the test with Leishmania donovani; in the test with Plasmodium falciparum; in test [1]) was more than 100 µM each time.

As to `N=C(N)c1ccc(OCCCCCOc2ccc(C(=N)N)cc2)cc1` [PENTAMIDINE], the values for the IC50 (in the test on KB; in the test with Leishmania donovani; in test [1]) were 0.11 µg/mL, 0.24 µg/mL and 0.0006 µg/mL, respectively.

For the compound `COc1cc([C@@H]2c3cc4c(cc3[C@H](O)[C@H]3COC(=O)[C@H]23)OCO4)cc(OC)c1OC` [PODOFILOX], the IC50 with KB amounted to 0.00621 µg/mL.

`O=c1c(O)c(-c2ccc(O)c(O)c2)oc2cc(O)cc(O)c12` [QUERCETIN]: the IC50 in the test on KB was determined as 136 µg/mL; in the test on Leishmania donovani it was 29.5 µg/mL; in the test with Plasmodium falciparum, 6.5 µg/mL; in test [1], 4.5 µg/mL.

Turning to `CC[C@H](/C=C/[C@@H](C)[C@H]1CC[C@H]2[C@@H]3CC=C4C[C@@H](O[C@@H]5O[C@H](CO)[C@@H](O)[C@H](O)[C@H]5O)CC[C@]4(C)[C@H]3CC[C@]12C)C(C)C` [STIGMASTEROL GLUCOSIDE], the concentration for half-maximal inhibition (IC50) (in the test with KB; in the test on Leishmania donovani; in the test on Plasmodium falciparum; in test [1]) was more than 100 µM in each case.

Turning to `CC[C@H](/C=C/[C@@H](C)[C@H]1CC[C@H]2[C@@H]3CC=C4C[C@@H](O)CC[C@]4(C)[C@H]3CC[C@]12C)C(C)C` [STIGMASTEROL], the IC50 (in the test on KB; in the test on Leishmania donovani; with Plasmodium falciparum; in test [1]) was more than 100 µM in each case.

For orientation: IC50 means the concentration at which inhibition is half-maximal. A low value points to greater potency in that assay.
